Patent publication US20240317780A1, “RADIOPHARMACEUTICAL SOMATOSTATIN RECEPTOR LIGANDS AND PRECURSORS THEREOF” (Technische Universität München, priority 2021, published 2024)

test system: not listed separately; assay: Octanol-water distribution coefficient (logD pH 7.4) of the labeled tracer; type: physicochemical; conditions: n-octanol/PBS pH 7.4, room temperature
Protocol: Approximately 1 MBq of the labeled tracer was dissolved in 1 mL of a 1:1 mixture (by volumes) of phosphate buffered saline (PBS, pH 7.4) and n-octanol in an Eppendorf tube. After vigorous mixing of the suspension for 3 minutes at room temperature, the vial was centrifuged at 15000 g for 5 minutes (Biofuge 15, Heraus Sepatech, Osterode, Germany) and 100 μL aliquots of both layers were measured in a gamma counter. The experiment was repeated at least six times.

In order of rising “LogDpH=7.4” value:
1. C[C@@H](O)[C@H](NC(=O)C1CSSCC(NC(=O)C(Cc2ccccc2)NC(=O)COCCOCCNC(=O)C(CC(=O)O)NC(=O)[C@@H](CC(=O)O)NC(=O)C(CNC(=O)CCC(C(=O)O)N2CCN(CC(=O)O)CCN(CC(=O)O)CCN(CC(=O)O)CC2)NC(=O)c2ccc([Si](F)(C(C)(C)C)C(C)(C)C)cc2)C(=O)N[C@@H](Cc2ccc(O)cc2)C(=O)NC(Cc2c[nH]c3ccccc23)C(=O)N[C@@H](CCCCN)C(=O)N[C@@H]([C@@H](C)O)C(=O)N1)C(=O)O (stereo partly drawn) (natGa complex, metal not drawn) [[Ga]2]  −2.3 ± 0.09
2. C[C@@H](O)[C@H](NC(=O)C1CSSCC(NC(=O)C(Cc2ccccc2)NC(=O)CNC(=O)CNC(=O)CNC(=O)C(CC(=O)O)NC(=O)[C@@H](CC(=O)O)NC(=O)C(CCC(=O)O)NC(=O)[C@@H](CNC(=O)C[N+](C)(C)Cc2ccc([Si](F)(C(C)(C)C)C(C)(C)C)cc2)NC(=O)CN2CCN(CC(=O)O)CCN(CC(=O)O)CCN(CC(=O)O)CC2)C(=O)N[C@@H](Cc2ccc(O)cc2)C(=O)NC(Cc2c[nH]c3ccccc23)C(=O)N[C@@H](CCCCN)C(=O)N[C@@H]([C@@H](C)O)C(=O)N1)C(=O)O (stereo partly drawn) [[Lu]47]  −2.29 ± 0.03
3. C[C@@H](O)[C@H](NC(=O)C1CSSCC(NC(=O)C(Cc2ccccc2)NC(=O)[C@@H](CC(N)=O)NC(=O)C(CC(N)=O)NC(=O)CNC(=O)C(CC(=O)O)NC(=O)[C@@H](CC(=O)O)NC(=O)C(CNC(=O)CN2CCN(CC(=O)O)CCN(CC(=O)O)CCN(CC(=O)O)CC2)NC(=O)C[N+](C)(C)Cc2ccc([Si](F)(C(C)(C)C)C(C)(C)C)cc2)C(=O)N[C@@H](Cc2ccc(O)cc2)C(=O)NC(Cc2c[nH]c3ccccc23)C(=O)N[C@@H](CCCCN)C(=O)N[C@@H]([C@@H](C)O)C(=O)N1)C(=O)O (stereo partly drawn) [[Lu]49]  −2.24 ± 0.06
4. C[C@@H](O)[C@H](NC(=O)C1CSSCC(NC(=O)C(Cc2ccccc2)NC(=O)[C@@H](CC(N)=O)NC(=O)C(CC(N)=O)NC(=O)[C@@H](CC(=O)O)NC(=O)C(CC(=O)O)NC(=O)[C@@H](CNC(=O)CN2CCN(CC(=O)O)CCN(CC(=O)O)CCN(CC(=O)O)CC2)NC(=O)C[N+](C)(C)Cc2ccc([Si](F)(C(C)(C)C)C(C)(C)C)cc2)C(=O)N[C@@H](Cc2ccc(O)cc2)C(=O)NC(Cc2c[nH]c3ccccc23)C(=O)N[C@@H](CCCCN)C(=O)N[C@@H]([C@@H](C)O)C(=O)N1)C(=O)O (stereo partly drawn) [[Lu]48]  −2.19 ± 0.05
5. C[C@@H](O)[C@H](NC(=O)C1CSSCC(NC(=O)C(Cc2ccccc2)NC(=O)COCCOCCNC(=O)C(CC(=O)O)NC(=O)[C@@H](CC(=O)O)NC(=O)C(CNC(=O)CN2CCN(CC(=O)O)CCN(CC(=O)O)CCN(CC(=O)O)CC2)NC(=O)c2ccc([Si](F)(C(C)(C)C)C(C)(C)C)cc2)C(=O)N[C@@H](Cc2ccc(O)cc2)C(=O)NC(Cc2c[nH]c3ccccc23)C(=O)N[C@@H](CCCCN)C(=O)N[C@@H]([C@@H](C)O)C(=O)N1)C(=O)O (stereo partly drawn) (natGa complex, metal not drawn) [[Ga]4]  −2.15 ± 0.11
6. C[C@@H](O)[C@H](NC(=O)C1CSSCC(NC(=O)C(Cc2ccccc2)NC(=O)CNC(=O)CNC(=O)CNC(=O)C(CC(=O)O)NC(=O)[C@@H](CC(=O)O)NC(=O)C(CCCNC(N)=O)NC(=O)[C@@H](CNC(=O)C[N+](C)(C)Cc2ccc([Si](F)(C(C)(C)C)C(C)(C)C)cc2)NC(=O)CN2CCN(CC(=O)O)CCN(CC(=O)O)CCN(CC(=O)O)CC2)C(=O)N[C@@H](Cc2ccc(O)cc2)C(=O)NC(Cc2c[nH]c3ccccc23)C(=O)N[C@@H](CCCCN)C(=O)N[C@@H]([C@@H](C)O)C(=O)N1)C(=O)O (stereo partly drawn) [[Lu]46]  −2.12 ± 0.05
7. C[C@@H](O)[C@H](NC(=O)C1CSSCC(NC(=O)C(Cc2ccccc2)NC(=O)CNC(=O)CNC(=O)CNC(=O)C(CC(=O)O)NC(=O)[C@@H](CC(=O)O)NC(=O)C(CCCCN)NC(=O)[C@@H](CNC(=O)C[N+](C)(C)Cc2ccc([Si](F)(C(C)(C)C)C(C)(C)C)cc2)NC(=O)CN2CCN(CC(=O)O)CCN(CC(=O)O)CCN(CC(=O)O)CC2)C(=O)N[C@@H](Cc2ccc(O)cc2)C(=O)NC(Cc2c[nH]c3ccccc23)C(=O)N[C@@H](CCCCN)C(=O)N[C@@H]([C@@H](C)O)C(=O)N1)C(=O)O (stereo partly drawn) [[Lu]45]  −2.10 ± 0.08
8. C[C@@H](O)[C@H](NC(=O)C1CSSCC(NC(=O)C(Cc2ccccc2)NC(=O)COCCOCCNC(=O)C(CC(=O)O)NC(=O)[C@@H](CC(=O)O)NC(=O)C(CNC(=O)c2ccc([Si](F)(C(C)(C)C)C(C)(C)C)cc2)NC(=O)CCC(C(=O)O)N2CCN(CC(=O)O)CCN(CC(=O)O)CCN(CC(=O)O)CC2)C(=O)N[C@@H](Cc2ccc(O)cc2)C(=O)NC(Cc2c[nH]c3ccccc23)C(=O)N[C@@H](CCCCN)C(=O)N[C@@H]([C@@H](C)O)C(=O)N1)C(=O)O (stereo partly drawn) (natGa complex, metal not drawn) [[Ga]1]  −2.02 ± 0.04
9. C[C@@H](O)[C@H](NC(=O)C1CSSCC(NC(=O)C(Cc2ccccc2)NC(=O)CNC(=O)CNC(=O)CNC(=O)C(CC(=O)O)NC(=O)[C@@H](CC(=O)O)NC(=O)C(CNC(=O)C[N+](C)(C)Cc2ccc([Si](F)(C(C)(C)C)C(C)(C)C)cc2)NC(=O)CN2CCN(CC(=O)O)CCN(CC(=O)O)CCN(CC(=O)O)CC2)C(=O)N[C@@H](Cc2ccc(O)cc2)C(=O)NC(Cc2c[nH]c3ccccc23)C(=O)N[C@@H](CCCCN)C(=O)N[C@@H]([C@@H](C)O)C(=O)N1)C(=O)O (stereo partly drawn) [[Lu]44]  −1.98 ± 0.05
10. C[C@@H](O)[C@H](NC(=O)C1CSSCC(NC(=O)C(Cc2ccccc2)NC(=O)CNC(=O)CNC(=O)[C@@H](CC(=O)O)NC(=O)C(CC(=O)O)NC(=O)[C@@H](CNC(=O)CN2CCN(CC(=O)O)CCN(CC(=O)O)CCN(CC(=O)O)CC2)NC(=O)C[N+](C)(C)Cc2ccc([Si](F)(C(C)(C)C)C(C)(C)C)cc2)C(=O)N[C@@H](Cc2ccc(O)cc2)C(=O)NC(Cc2c[nH]c3ccccc23)C(=O)N[C@@H](CCCCN)C(=O)N[C@@H]([C@@H](C)O)C(=O)N1)C(=O)O (stereo partly drawn) [[Lu]24]  −1.90 ± 0.05
11. C[C@@H](O)[C@H](NC(=O)C1CSSCC(NC(=O)C(Cc2ccccc2)NC(=O)COCCOCCNC(=O)C(CC(=O)O)NC(=O)[C@@H](CC(=O)O)NC(=O)C(CNC(=O)c2ccc([Si](F)(C(C)(C)C)C(C)(C)C)cc2)NC(=O)CN2CCN(CC(=O)O)CCN(CC(=O)O)CCN(CC(=O)O)CC2)C(=O)N[C@@H](Cc2ccc(O)cc2)C(=O)NC(Cc2c[nH]c3ccccc23)C(=O)N[C@@H](CCCCN)C(=O)N[C@@H]([C@@H](C)O)C(=O)N1)C(=O)O (stereo partly drawn) (natGa complex, metal not drawn) [[Ga]3]  −1.87 ± 0.07
12. C[C@@H](O)[C@H](NC(=O)C1CSSCC(NC(=O)C(Cc2ccccc2)NC(=O)CNC(=O)CNC(=O)[C@@H](CC(=O)O)NC(=O)C(CC(=O)O)NC(=O)[C@@H](CNC(=O)CN2CCN(CC(=O)O)CCN(CC(=O)O)CCN(CC(=O)O)CC2)NC(=O)C(CN)NC(=O)c2ccc([Si](F)(C(C)(C)C)C(C)(C)C)cc2)C(=O)N[C@@H](Cc2ccc(O)cc2)C(=O)NC(Cc2c[nH]c3ccccc23)C(=O)N[C@@H](CCCCN)C(=O)N[C@@H]([C@@H](C)O)C(=O)N1)C(=O)O (stereo partly drawn) [[Lu]19]  −1.85 ± 0.02

target: T1, SST2 (Homo sapiens, UniProt P30874); assay: Determination of IC50: competitive binding against [125I]TOC on SST2-transfected CHO cells; conditions: [125I]TOC reference radioligand, 60 min room temperature
T1 construct: expressed in transfected cells; host or cells: CHO (Chinese hamster ovary) cells
Protocol: The SST2-transfected CHO cells were cultivated in Dulbecco's Modified Eagle Medium/Nutrient Mixture F-12 (DMEM/F-12) with Glutamax-I (1:1) (Gibco), supplemented with 10% fetal calf serum (FCS) and maintained at 37° C. in a humidified 5% CO2 atmosphere. […] After removal of the culture medium, the cells were treated once with 300 μL of HBSS-B (Hank's balanced salt solution, Biochrom, Berlin, Germany, with addition of 1% bovine serum albumin (BSA)) and left with 200 μL HBSS-B. Next, 25 μL per well of solutions, containing either HBSS-B (control) or the respective ligand in increasing concentration (10^−10-10^−4 M in HBSS-B, were added with subsequent addition of 25 μL of
[^125I]TOC ([^125I]Tyr^3-Octreotide) (1.0 nM) in HBSS-B. Each concentration is investigated in triplicate. After 60 min incubation at room temperature, the experiment was terminated by removal of the assay medium and consecutive rinsing with 300 μL of cold PBS. The media of both steps were combined in one fraction and represent the amount of unbound radioligand.
Afterwards, the cells were lysed with 300 μL of 1 M NaOH and united with the 300 μL 1 M NaOH of the following wash step. Quantification of bound and unbound radioligand was accomplished in a γ-counter.

T1 sequence (P30874 whole entry, species assumed): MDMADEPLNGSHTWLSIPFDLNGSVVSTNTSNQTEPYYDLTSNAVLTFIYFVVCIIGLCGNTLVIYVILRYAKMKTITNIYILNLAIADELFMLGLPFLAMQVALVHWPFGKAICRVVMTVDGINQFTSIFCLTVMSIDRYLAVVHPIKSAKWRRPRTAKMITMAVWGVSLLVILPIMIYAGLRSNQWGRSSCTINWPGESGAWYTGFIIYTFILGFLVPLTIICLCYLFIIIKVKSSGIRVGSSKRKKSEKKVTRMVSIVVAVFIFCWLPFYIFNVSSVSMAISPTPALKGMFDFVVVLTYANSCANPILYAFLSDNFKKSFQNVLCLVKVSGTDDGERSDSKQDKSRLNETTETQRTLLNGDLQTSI

In order of falling IC50:
1. C[C@@H](O)[C@H](NC(=O)C1CSSCC(NC(=O)C(Cc2ccccc2)NC(=O)CNC(=O)CNC(=O)[C@@H](CC(=O)O)NC(=O)C(CC(=O)O)NC(=O)[C@@H](CNC(=O)CN2CCN(CC(=O)O)CCN(CC(=O)O)CCN(CC(=O)O)CC2)NC(=O)C(CN)NC(=O)c2ccc([Si](F)(C(C)(C)C)C(C)(C)C)cc2)C(=O)N[C@@H](Cc2ccc(O)cc2)C(=O)NC(Cc2c[nH]c3ccccc23)C(=O)N[C@@H](CCCCN)C(=O)N[C@@H]([C@@H](C)O)C(=O)N1)C(=O)O (stereo partly drawn) (natLu complex, metal not drawn) [[Lu]19]  13.3 ± 1.97 nM
2. C[C@@H](O)[C@H](NC(=O)C1CSSCC(NC(=O)C(Cc2ccccc2)NC(=O)CNC(=O)CNC(=O)CNC(=O)C(CC(=O)O)NC(=O)[C@@H](CC(=O)O)NC(=O)C(CNC(=O)C[N+](C)(C)Cc2ccc([Si](F)(C(C)(C)C)C(C)(C)C)cc2)NC(=O)CN2CCN(CC(=O)O)CCN(CC(=O)O)CCN(CC(=O)O)CC2)C(=O)N[C@@H](Cc2ccc(O)cc2)C(=O)NC(Cc2c[nH]c3ccccc23)C(=O)N[C@@H](CCCCN)C(=O)N[C@@H]([C@@H](C)O)C(=O)N1)C(=O)O (stereo partly drawn) (natGa complex, metal not drawn) [[Ga]44]  5.45 ± 0.5 nM
3. C[C@@H](O)[C@H](NC(=O)C1CSSCC(NC(=O)C(Cc2ccccc2)NC(=O)CNC(=O)CNC(=O)CNC(=O)C(CC(=O)O)NC(=O)[C@@H](CC(=O)O)NC(=O)C(CNC(=O)CN2CCN(CC(=O)O)CCN(CC(=O)O)CCN(CC(=O)O)CC2)NC(=O)[C@@H](CN)NC(=O)CNC(=O)CNC(=O)C[N+](C)(C)Cc2ccc([Si](F)(C(C)(C)C)C(C)(C)C)cc2)C(=O)N[C@@H](Cc2ccc(O)cc2)C(=O)NC(Cc2c[nH]c3ccccc23)C(=O)N[C@@H](CCCCN)C(=O)N[C@@H]([C@@H](C)O)C(=O)N1)C(=O)O (stereo partly drawn) (natLu complex, metal not drawn) [[Lu]53]  3.36 ± 0.27 nM
